# Results published in patent publication EP4737450A1 (Longwood Pharmaceuticals (Hangzhou) Co., Ltd, priority 2023, dated 2025).
# Read-outs that look alike come from different tables or passages of the source.
# Legend:
# FXIa = FXIa (Homo sapiens, UniProt P03951); test: Inhibitory activity against FXIa in vitro (biochemical assay); conditions: values given in µM
# Procedure: Test Example 1. Test of the inhibitory activities of the compounds of the present invention against plasma kallikrein (PKa), KLK1 and FXIa in vitro.
# PKK (R & D, Cat # 2497-SE) and Pro-Phe-Arg-AMC (Nanjing Peptide, Cat # NJP23946) solutions were prepared in reaction buffer (50 mM Tris-HCl, pH 7.5, 250 mM NaCl). The final concentrations of enzyme protein and Pro-Phe-Arg-AMC in the reaction mixture were 10 nM and 60 µM, respectively. The starting concentration of the positive reference substance Avoralstat was 100 nM, 3-fold dilution, 10 + 0 dose. 0.05 µL of compound in 100% DMSO was delivered to a 384-well plate by an acoustic liquid delivery technique (Echo665; nanoliter range). Compound duplex test. 5 µL of 2 × enzyme solution was transferred to a 384 reaction plate and centrifuged at 1000 rpm for 1 minute, incubated at 25°C for 15 minutes; 5 µL of 2 × Pro-Phe-Arg-AMC solution was transferred to a 384 reaction plate, centrifuged at 1000 rpm for 1 minute, incubated at 25°C for 3 hours. […] IC50 values and nonlinear regression curve fitting were obtained using GraphPad Prism software.
# plasma kallikrein (PKa) = biological target: T1, plasma kallikrein (PKa) (Homo sapiens, UniProt P03952); test: Inhibitory activity against plasma kallikrein in vitro (fluorescence intensity enzyme assay, Pro-Phe-Arg-AMC substrate); format: biochemical; conditions: Pro-Phe-Arg-AMC substrate
# T1 construct: purchased R & D 2497-SE
# In short: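 Fluorescence intensity enzyme assay with 10 nM enzyme and 60 µM Pro-Phe-Arg-AMC (final concentrations). Compounds in DMSO, tested in duplicate over a dose series. IC50 from nonlinear regression curve fitting.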
# KLK1 = KLK1 (Homo sapiens, UniProt P06870); test: Inhibitory activity against KLK1 in vitro (biochemical assay)
# Source text: Test Example 1. Test of the inhibitory activities of the compounds of the present invention against plasma kallikrein (PKa), KLK1 and FXIa in vitro. […]
# [1] = plasma kallikrein enzyme assay, read-out: PKa IC50
# FXIa, sequence (P03951 388-625 limits assumed): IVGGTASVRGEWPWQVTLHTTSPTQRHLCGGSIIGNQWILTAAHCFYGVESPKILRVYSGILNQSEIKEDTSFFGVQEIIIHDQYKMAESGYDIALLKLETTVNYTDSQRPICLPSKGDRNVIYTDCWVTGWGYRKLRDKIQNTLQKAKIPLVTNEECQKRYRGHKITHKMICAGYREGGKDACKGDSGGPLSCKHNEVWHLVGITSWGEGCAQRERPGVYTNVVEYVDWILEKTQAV
# FXIa, sequence (P03951 19-387 partner limits assumed): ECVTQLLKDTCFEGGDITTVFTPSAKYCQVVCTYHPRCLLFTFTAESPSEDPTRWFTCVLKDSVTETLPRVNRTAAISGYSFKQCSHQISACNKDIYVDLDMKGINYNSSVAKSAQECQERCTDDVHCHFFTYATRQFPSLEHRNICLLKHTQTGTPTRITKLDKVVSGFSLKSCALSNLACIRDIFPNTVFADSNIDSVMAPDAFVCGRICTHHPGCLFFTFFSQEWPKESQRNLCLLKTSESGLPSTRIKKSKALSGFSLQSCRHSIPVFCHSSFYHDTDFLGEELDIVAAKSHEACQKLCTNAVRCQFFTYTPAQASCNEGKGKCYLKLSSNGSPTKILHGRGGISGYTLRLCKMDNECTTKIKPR
# KLK1, sequence (P06870 25-262, species assumed): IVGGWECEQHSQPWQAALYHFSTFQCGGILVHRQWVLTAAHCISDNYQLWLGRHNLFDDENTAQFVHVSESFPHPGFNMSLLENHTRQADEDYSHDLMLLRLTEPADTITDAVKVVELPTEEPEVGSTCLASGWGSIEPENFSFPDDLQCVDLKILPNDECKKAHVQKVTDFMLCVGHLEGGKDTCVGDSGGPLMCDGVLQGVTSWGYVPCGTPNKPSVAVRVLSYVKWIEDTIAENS
# T1 sequence (P03952 391-638 limits assumed): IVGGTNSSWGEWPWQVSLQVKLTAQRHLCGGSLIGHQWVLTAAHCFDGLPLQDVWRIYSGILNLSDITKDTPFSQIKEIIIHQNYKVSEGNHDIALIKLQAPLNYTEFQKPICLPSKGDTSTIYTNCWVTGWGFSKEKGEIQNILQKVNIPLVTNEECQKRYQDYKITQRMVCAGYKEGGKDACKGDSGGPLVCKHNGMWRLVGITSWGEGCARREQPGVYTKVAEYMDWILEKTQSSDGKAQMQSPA
# T1 sequence (P03952 20-390 partner limits assumed): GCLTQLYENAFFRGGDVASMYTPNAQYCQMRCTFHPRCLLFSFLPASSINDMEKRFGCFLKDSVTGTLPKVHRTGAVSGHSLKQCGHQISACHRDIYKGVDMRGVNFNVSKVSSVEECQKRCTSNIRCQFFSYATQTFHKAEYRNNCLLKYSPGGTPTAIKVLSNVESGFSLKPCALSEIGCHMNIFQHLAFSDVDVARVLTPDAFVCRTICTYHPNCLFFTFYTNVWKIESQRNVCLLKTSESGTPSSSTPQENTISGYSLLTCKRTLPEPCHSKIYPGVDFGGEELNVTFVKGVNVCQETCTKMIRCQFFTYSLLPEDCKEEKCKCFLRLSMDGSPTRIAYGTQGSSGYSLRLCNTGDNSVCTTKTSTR
Structure (SMILES),IC50 (FXIa) [µM],IC50 (plasma kallikrein (PKa); [1]) [nM],IC50 (KLK1; values given in µM) [µM],IC50 (KLK1; values in nM) [µM],"IC50 (plasma kallikrein (PKa); PKa IC50, plasma kallikrein enzyme assay) [nM]"
Cc1cc(N)nc(C)c1CNC(=O)c1ncn(Cc2c(F)c(F)c(Cn3ccccc3=O)c(F)c2F)n1 [Compound 22],> 10,0.63,> 10,–,–
COCc1nn(Cc2ccc(Cn3cc(F)ccc3=O)cc2)cc1C(=O)NCc1c(C)cc(N)nc1C [Compound 24],> 10,0.175,> 10,–,–
Cc1nc(N)ccc1CNC(=O)c1ncn(Cc2ccc(Cn3ccccc3=O)cc2)n1 [Compound 27],> 10,1.48,> 10,–,–
COCc1nn(Cc2c(F)c(F)c(Cn3ccccc3=O)c(F)c2F)cc1C(=O)NCc1c(C)cc(N)nc1C [Compound 28],> 10,2.33,–,> 0.5,–
Cn1cnc2c1CC[C@H]2NC(=O)c1cn(Cc2cn3cc(C4CC4)ccc3n2)nn1 [Compound 35],> 10,1.65,> 10,–,–
N#Cc1cc(N2CC3C(C2)C3(F)F)ccc1Cn1cnc(C(=O)NCc2ccc3c(N)nccc3c2)n1 (stereo not drawn) [Compound 43],> 10,0.92,> 10,–,–
Cc1cc(N)nc(C)c1CNC(=O)c1nnc(Cc2ccc(Cn3ccccc3=O)cc2)[nH]1 [Compound 44],> 10,0.39,> 10,–,–
Cc1cc(N)nc(C)c1CNC(=O)c1ncn(Cc2cn3cc(C4CC4)ccc3n2)n1 [Compound 47],> 10,0.18,> 10,–,–
Cc1cc(N)nc(C)c1CNC(=O)c1noc(Cc2ccc(Cn3ccccc3=O)cc2)n1 [Compound 48],> 10,0.38,> 10,–,–
COCc1nn(Cc2c(F)c(F)c(Cn3cc(F)ccc3=O)c(F)c2F)cc1C(=O)NCc1c(C)cc(N)nc1C [Compound 49],> 10,2.78,> 10,–,–
Cc1cc(N)nc(C)c1CNC(=O)c1ncn(C(C)c2ccc(Cn3ccccc3=O)cc2)n1 (stereo not drawn) [Compound 50],> 10,0.89,> 10,–,–
Cc1cc(N)nc(C)c1CNC(=O)c1nnn(Cc2ccc(Cn3ccccc3=O)cc2)n1 [Compound 55],> 10,0.16,> 10,–,–
Cc1cc(N)nc(C)c1CNC(=O)c1ncn(Cc2ccc(Cn3cccc(C)c3=O)cc2)n1 [Compound 56],> 10,0.16,> 10,–,–
COCc1cn(Cc2ccc(Cn3ccccc3=O)cc2)nc1C(=O)NCc1c(C)cc(N)nc1C [Compound 60],> 10,0.65,> 10,–,–
Cc1cc(N)nc(C)c1CNC(=O)c1ccn(Cc2ccc(Cn3ccccc3=O)cc2)c1 [Compound 61],> 10,0.12,> 10,–,–
Cc1cc(N)nc(C)c1CNC(=O)c1cc(Cc2ccc(Cn3ccccc3=O)cc2)cn1C [Compound 62],> 10,0.12,> 10,–,–
Cc1cc(N)nc(C)c1CNC(=O)c1cn(Cc2ccc(CN3CCOCC3=O)cc2)nc1C(F)F [Compound 64],> 10,2.99,> 10,–,–
Cc1cc(N)nc(C)c1CNC(=O)c1nsc(Cc2ccc(Cn3ccccc3=O)cc2)n1 [Compound 67],> 10,0.29,> 10,–,–
Cc1cc(N)nc(C)c1CNC(=O)c1csc(Cc2ccc(Cn3ccccc3=O)cc2)n1 [Compound 68],> 10,0.32,> 10,–,–
"Cc1cc(N)nc(C)c1CNC(=O)c1cn(Cc2ccc(Cn3ccccc3=O)cc2)nc1C(F)F [Compound 69, N-((6-amino-2,4-dimethylpyridin-3-yl)methyl)-3-(difluoromethyl)-1-(4-(2-oxopyridin-1(2H)-yl)methylbenzyl)-1H-pyrazole-4-carboxamide]",> 10,0.076,> 10,–,–
COCc1nn(Cc2ccc(Cn3ccccc3=O)cc2)cc1C(=O)N[C@@H]1CCc2c1ncn2C [Compound 70],> 10,1.87,> 10,–,–
COCc1nn(Cc2ccc(Cn3ccccc3=O)cc2)cc1C(=O)NCc1ccc2c(N)nccc2c1 [Compound 71],> 10,0.19,> 10,–,–
Cc1cc(N)nc(C)c1CNC(=O)c1ncn(Cc2cc(Cn3ccccc3=O)cs2)n1 [Compound 73],> 10,3.07,> 10,–,–

Structure (SMILES),IC50 (FXIa) [µM],IC50 (plasma kallikrein (PKa); [1]) [nM],IC50 (KLK1; values given in µM) [µM],IC50 (KLK1; values in nM) [µM],"IC50 (plasma kallikrein (PKa); PKa IC50, plasma kallikrein enzyme assay) [nM]"
COCc1cn(Cc2ccc(CN3CCCCC3=O)cc2)nc1C(=O)NCc1c(C)cc(N)nc1C [Compound 74],> 10,5.7,> 10,–,–
Cc1cc(N)nc(C)c1CNC(=O)c1ccn(Cc2ccc(Cn3cccc(C)c3=O)cc2)n1 [Compound 75],> 10,0.22,> 10,–,–
Cc1cc(N)nc(C)c1CNC(=O)c1ncn(Cc2cc(Cl)c(Cn3ccccc3=O)cc2Cl)n1 [Compound 80],> 10,0.096,> 10,–,–
Cc1cc2nccn2c(C)c1CNC(=O)c1cnn(Cc2ccc(Cn3ccccc3=O)cc2)c1 [Compound 94],> 10,0.53,> 10,–,–
N=C(N)c1ccc(CNC(=O)c2cnn(Cc3ccc(CC4CC4)cc3)c2)cc1 [Compound 105],> 10,0.26,> 10,–,–
Cc1cc(N)nc(C)c1CNC(=O)c1cn(Cc2ccc(Cn3ccccc3=O)cc2)nc1C(F)(F)F [Compound 116],> 10,0.07,> 10,–,–
COCc1nn(Cc2ccc(Cn3ccccc3=O)cc2)cc1C(=O)NCc1cn2c(n1)CNCC2 [Compound 118],> 10,0.92,> 10,–,–
COCc1nn(Cc2ccc(CC3CC3)cc2)cc1C(=O)NCc1ccc(C(=N)N)cc1 [Compound 121],> 10,0.48,> 10,–,–
CCn1cnc2c1CC[C@H]2NC(=O)c1cn(Cc2ccc(Cn3ccccc3=O)cc2)nc1COC [Compound 130],> 10,1.09,> 10,–,–
Cc1cc2nccn2c(C)c1CNC(=O)c1nc(Cc2ccc(Cn3ccccc3=O)cc2)ns1 [Compound 137],> 10,0.9,> 10,–,–
"Cc1cc2nccn2c(C)c1CNC(=O)c1cn(Cc2ccc(Cn3ccccc3=O)cc2)nc1C(F)(F)F [Compound 142, N-((5,7-dimethylimidazo[1,2-a]pyridin-6-yl)methyl)-1-(4-((2-oxopyridin-1(2H)-yl)methyl]benzyl)-3-(trifluoromethyl)-1H-pyrazole-4-carboxamide]",> 10,0.35,> 10,–,–
COCc1nn(Cc2ccc(Cn3ccccc3=O)cc2)cc1C(=O)NCc1c(C)cc2nccn2c1C [Compound 143],> 10,0.65,> 10,–,–
COCc1nn(Cc2ccc(Cn3ccccc3=O)cc2)cc1C(=O)NCc1c(C)cn2cncc2c1C [Compound 147],> 10,–,> 10,–,1.57
COCc1nn(Cc2ccc(C3CCCCC3)c(C(F)(F)F)c2)cc1C(=O)NCc1ccc(C(=N)N)cc1 [Compound 153],> 10,0.18,> 10,–,–
O=C(NCc1cc2ccncc2[nH]1)c1cn(Cc2ccc(Cn3ccccc3=O)cc2)nc1C(F)(F)F [Compound 155],> 10,1.48,> 10,–,–
"COCc1nn(Cc2ccc(N3CC4C(C3)C4(F)F)cc2C#N)cc1C(=O)NCc1cc2cnccc2[nH]1 (stereo not drawn) [Compound 157, N-((1H-pyrrolo[3,2-c]pyridin-2-yl)methyl)-1-(2-cyano-4-(6,6-difluoro-3-azabicyclo[3.1.0]hexan-3-yl)benzyl)-3-(methoxymethyl)-1H-pyrazole-4-carboxamide]",> 10,1.89,> 10,–,–
Cc1cn2cncc2c(C)c1CNC(=O)c1cn(Cc2ccc(Cn3ccccc3=O)cc2)nc1C(F)(F)F [Compound 203],> 10,0.53,> 10,–,–
Cc1cc2nccn2c(C)c1CNC(=O)c1cn(Cc2ccc(N3CC4C(C3)C4(F)F)cc2C#N)nc1C(F)(F)F (stereo not drawn) [Compound 204],> 10,1.23,> 10,–,–
COc1ccnc(CNC(=O)c2cn(Cc3ccc(Cn4ccccc4=O)cc3)nc2CN2CCN(C)CC2)c1F [Compound 213],> 10,35,> 10,–,–
COc1ccc(F)c(CNC(=O)c2cn(Cc3ccc(Cn4cc(F)ccc4=O)cc3)nc2C2CC2(F)F)c1F (stereo not drawn) [Compound 218],> 10,2.16,> 10,–,–
COc1ccc(F)c(CNC(=O)c2cn(Cc3ccc(Cn4ccccc4=O)cc3)nc2COCCN(C)C)c1F [Compound 222],> 10,1.94,> 10,–,–
COc1ccc(F)c(CNC(=O)c2cn(Cc3ccc(Cn4ccccc4=O)cc3)nc2CO[C@H]2CCN(C)C2)c1F [Compound 225],> 10,2.86,> 10,–,–
